We go through 2 compounds from PMC11123991, “Novel 9-Methylanthracene Derivatives as p53 Activators for the Treatment of Glioblastoma Multiforme” (Molecules, 2024).

Assay [1] relates to p53. The assay is described as follows: Western blot of p53 expression in U87 cells. Format: cell-based, human. To be noted: U87, 24 h, 0.5, 1 and 2 µM. The protocol:
(§1) Protein levels in U87 cells treated with test compound 13e (0.5, 1, and 2 µM) for 24 h were measured by Western blot analysis as described previously. Briefly, after 13e treatment, cells were lysed in RIPA buffer. Proteins were separated by 8% SDS-PAGE and transferred to a PVDF membrane (Millipore, Billerica, MA, USA). The membrane was incubated with an anti-MDM4 antibody (A300-287A, Bethyl Laboratories, Montgomery, TX, USA), anti-p53 antibody (sc-126, Santa Cruz Biotechnology, Inc., Dallas, TX, USA), or anti-GAPDH antibody (AG019, Beyotime, Shanghai, China) followed by an HRP-linked secondary antibody (A0216, Beyotime) for 2 h. ECL reagent was used for chemiluminescent development. Densitometric analysis of protein bands was performed using ImageJ V.1.8.0 software.

Assay [2] concerns MDM4. The assay is described as follows: Western blot of MDM4 expression in U87 cells. Format: cell-based, human. To be noted: U87, 24 h, 0.5, 1 and 2 µM. The protocol: as §1
Assay [3] concerns human glioblastoma cell line U87. The experiment in a line: MTT antiproliferative assay in U87 cells. Format: cell-based. As to conditions: Homo sapiens, U-87 MG, 72 h, 10 µM, 72 h, MTT, triplicates; read-out: U87 (% Inhib. @ 10 µM). Here is the method: (§2) U87, Hela, MCF-7, and HHL-5 cells were provided by Chinese Academy of Medical Sciences (Beijing, China). The cancer cells were cultured in DMEM media containing 10% heat-inactivated fetal calf serum. All cells were incubated at 37 °C in a 5% CO2 humidified atmosphere and harvested in the exponential growth phase for assays.
(§3) Cells were seeded in a 96-well plate and treated with the test substance at the desired concentration for 72 h. In cytotoxicity experiments, cells were treated with 10 µM of the test compound or 1 µM XI-011 and doxorubicin as positive controls. DMSO (1%) was used as a negative control. In the IC50 analysis, doxorubicin, XI-011, 13d, 13e, 14a, 14b, and, 14n were applied to HHL-5 at 50, 25, 10, 5, 2.5, 1.25, 0.625, 0.3125, and 0.15625 µM and U87 cells at 10, 7.5, 5, […], 1.25, 0.625, 0.3125, and 0.15625 µM, whereas 30, 10, 3, 0.5, and 0.1 µM were applied to Hela and MCF-7 cells. Treated cells were incubated with an MTT solution for 2 h and then with DMSO to dissolve the crystals. Absorbance was determined at 570 nm using a microplate reader (BioTek, Seattle, DC, USA). IC50 values were calculated using the Hill model in GraphPad Prism 8.0.2 software.

For assay [4], the system named is HHL-5 human normal cell line. The assay is described as follows: MTT cytotoxicity assay in normal HHL-5 cells. Format: cell-based. Here is the method:
as §2, §3

The test system of assay [5] is U87 cells. The experiment in a line: Flow cytometric cell cycle analysis in U87 cells. As to conditions: U87, 24 h, 0.5, 1 and 2 µM. The format is cell-based, human. Here is the method:
Cells were cultured for 24 h in a 6-well plate, and then the test compound (0.5, 1, and 2 µM) was added to the culture medium. After treatment for 24 h, the cells were harvested and fixed at 4 °C overnight in an ethanol solution (80%). The cells were washed with PBS and stained with a PI solution ([…] in PBS). After 30 min, the cells were subjected to flow cytometry (C6; BD, Franklin Lakes, NJ, USA). The recorded cell fluorescence was used to analyze the cell cycle distribution.

Assay [6] relates to human breast cancer cell line MCF-7. The assay is described as follows: MTT antiproliferative assay in MCF-7 cells. As to conditions: MCF7, 72 h, mean ± SD (n = 3). The format is cell-based. The protocol: as §2, §3
The subject of assay [7] is U87 cells. The experiment in a line: Flow cytometric apoptosis analysis in U87 cells. The format is cell-based, human. As to conditions: 24 h. The protocol:
Reducing MDM4 expression restores the p53 function and increases apoptotic cells. The apoptotic effects of compound 13e were determined in U87 cells by flow cytometry. […] 13e induced 21% apoptosis at 1 µM, which was slightly lower than the 23% apoptosis induced by XI-011. At 2 µM 13e, apoptosis was up to 25.9%. […] The mechanism by which 13e induces apoptosis in U87 cells may be related to its ability to downregulate MDM4 expression and stabilize p53 protein.

Assay [8] relates to human cervical cancer cell line HeLa. The assay is described as follows: MTT antiproliferative assay in HeLa cells. Format: cell-based. To be noted: Homo sapiens, 72 h, MTT, mean ± SD (n = 3). The protocol:
as §2, §3

Assay [9] relates to MDM4. To be noted: Figure 1, representative MDM4 inhibitors; reference not given; cited from earlier work.

As for `Cc1c2ccccc2c(CSC(=N)N(C)N)c2ccccc12` [13e], the p53 protein expression entry in [1] is “significantly upregulated p53 protein expression”. Moreover, the MDM4 expression result in assay [2] is listed as “dose-dependent suppression of MDM4 expression”. Besides, in [3], the inhibition at 10 µM is 88.6%. The “fold lesser toxicity to human normal HHL-5 cells than to U87 cells” value in [4] (HHL-5 IC50 versus U87 IC50) amounted to 2 fold. Further, the IC50 came to 1.11 ± 0.08 µM in assay [4] (Homo sapiens, HHL-5, normal cell line, 72 h, MTT, mean ± SD (n = 3)); 0.97 ± 0.11 µM in assay [6]; 1.63 ± 0.25 µM in assay [8]. Further, the cell cycle effect entry in assay [5] is “arrested U87 cells in G2/M phase”. For the same compound, the apoptosis turned out to be 21% in assay [7] (U87, 1 µM) and 25.9% in assay [7] (U87, 2 µM).
With `CCOc1cc(/C=C2\C(=O)N(c3ccccc3)N=C2C)cc(Cl)c1OCC(=O)OC` [SJ-172550], the IC50 in assay [9] was 0.87 µM.
